For the test, the target named is T1, Human M4 (Homo sapiens, UniProt P08173).
T1 construct: expressed in transfected cells; host or cells: CHO-K1 (ATCC), co-transfected with chimeric G protein Gqi5
T1 sequence (P08173 1-479): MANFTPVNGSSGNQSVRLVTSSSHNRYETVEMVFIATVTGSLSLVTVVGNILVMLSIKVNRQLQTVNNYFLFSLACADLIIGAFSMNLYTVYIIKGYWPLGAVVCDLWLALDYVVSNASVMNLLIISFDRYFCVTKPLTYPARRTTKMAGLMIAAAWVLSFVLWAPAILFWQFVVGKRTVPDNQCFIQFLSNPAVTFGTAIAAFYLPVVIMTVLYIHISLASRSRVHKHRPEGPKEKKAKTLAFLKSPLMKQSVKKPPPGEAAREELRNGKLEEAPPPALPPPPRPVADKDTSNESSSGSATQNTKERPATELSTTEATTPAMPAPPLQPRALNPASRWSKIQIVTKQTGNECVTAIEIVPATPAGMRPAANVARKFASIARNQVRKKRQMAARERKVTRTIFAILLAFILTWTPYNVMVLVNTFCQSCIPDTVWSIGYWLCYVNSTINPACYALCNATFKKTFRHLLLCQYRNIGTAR
Description: mAChR M4 cell-based functional assay (calcium flux, antagonism of EC80 acetylcholine response). The following applies: M4/Gqi5/CHO-K1 cells; for pIC50: concentration-dependent decrease of the response elicited by an EC80 concentration of acetylcholine; for Human M4 Emin (% ACh maximum at 30 μM) / remaining activity at 30 µM: % ACh maximum at 30 μM; for remaining activity at 30 µM: read-out: Human M4 Emin (% ACh maximum at 30 μM). In short, it runs like this: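 CHO-K1 cells stably expressing human M4 with chimeric Gqi5, Fluo-4 loaded; calcium flux read on FDSS. Compound (10-point, 1:3 series) added first, then EC20 acetylcholine at 143 s and EC80 at 268 s. IC50 from concentration-dependent decrease of EC80 response, four-parameter logistic fit.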
(A change in cytosolic calcium serves as a functional read-out for many receptors and channels.)

From patent US20240228468A1, “N-(6-((OCTAHYDROCYCLOPENTA[C]PYRROL-5-YI)AMINO)PYRIDAZIN-3-YL)PHENYL)CARBOXAMIDE AND (6- ((OCTAHYDROCYCLOPENTA[C]PYRROL-5-YL)AMINO)PYRIDAZIN-3-YL)BENZAMIDE DERIVATIVES AS MACHR M4 ANTAGONISTS FOR THE TREATMENT OF NEURODEGENERATIVE DISORDERS” (Vanderbilt University, priority 2021, published 2024) come the findings set out here.

Each structure is given as a SMILES string. pIC50: −log10 of the molar value.

As usually defined, the pIC50 is the negative decadic logarithm of the IC50, by convention in mol/L.

For `[2H]C([2H])([2H])C(=O)Nc1ccccc1-c1ccc(N[C@H]2C[C@@H]3CN(CC4CCOCC4)C[C@@H]3C2)nn1` [Compound B3, N-(2-(6-(((3aR,5s,6aS)-2-((tetrahydro-2H-pyran-4-yl)methyl)octahydrocyclopenta [c]pyrrol-5-yl)amino)pyridazin-3-yl)phenyl) acetamide-2,2,2-d3], the “Human M4 Emin (% ACh maximum at 30 μM)” value was determined as 4% and the pIC50 was 6.92.
Take `[2H]C([2H])(C1CCOCC1)N1C[C@H]2C[C@H](Nc3ccc(-c4ccccc4C(=O)NC)nn3)C[C@H]2C1` [Compound A48, N-methyl-2-(6-(((3aR,5s,6aS)-2-((tetrahydro-2H-pyran-4-yl)methyl-d2)octahydrocyclopenta[c]pyrrol-5-yl)amino)pyridazin-3-yl)benzamide]: the remaining activity at 30 µM came out at 4% and the negative logarithm of the IC50 (pIC50) is 7.13.
In the case of `CC(=O)Nc1ccc(-c2ccc(N[C@H]3C[C@@H]4CN(Cc5ccc(F)cc5)C[C@@H]4C3)nn2)cc1` [Compound A3, N-(4-(6-(((3aR,5s,6aS)-2-(4-fluorobenzyl)octahydrocyclopenta[c]pyrrol-5-yl)amino)pyridazin-3-yl)phenyl)acetamide], the remaining activity at 30 µM came out at 2% and the pIC50 was 8.00.
In the case of `[2H]C([2H])(C1CCOCC1)N1C[C@H]2C[C@H](Nc3ccc(-c4cc(F)c(C(N)=O)c(F)c4F)nn3)C[C@H]2C1` [Compound A65, 2,3,6-trifluoro-4-(6-(((3aR,5s,6aS)-2-((tetrahydro-2H-pyran-4-yl)methyl-d2)octahydrocyclopenta[c]pyrrol-5-yl)amino)pyridazin-3-yl)benzamide], the remaining activity at 30 µM amounted to 5% and the pIC50 is 8.20.
Take `[2H]C([2H])([2H])C(=O)Nc1ccc(-c2ccc(N[C@H]3C[C@@H]4CN(CC5CCOCC5)C[C@@H]4C3)nn2)cc1` (single isomer, unassigned) [Compound B5]: the “Human M4 Emin (% ACh maximum at 30 μM)” value came to 3% and the pIC50 is 8.62.
Take `[2H]C([2H])([2H])NC(=O)c1cccc(-c2ccc(N[C@H]3C[C@@H]4CN(C([2H])([2H])C5CCOCC5)C[C@@H]4C3)nn2)c1` (single isomer, unassigned) [Compound A49]: the remaining activity at 30 µM came out at 3% and the negative logarithm of the IC50 (pIC50) was 8.26.
For `[2H]C([2H])(C1CCOCC1)N1C[C@H]2C[C@H](Nc3ccc(-c4ccccc4C(=O)NCC)nn3)C[C@H]2C1` [Compound A59, N-ethyl-2-(6-(((3aR,5s,6aS)-2-((tetrahydro-2H-pyran-4-yl)methyl-d2)octahydrocyclopenta[c]pyrrol-5-yl)amino)pyridazin-3-yl)benzamide], in that order: 6% and 6.77.
Taken in the same sequence, the figures for `[2H]C1([2H])CC(C([2H])([2H])N2C[C@H]3C[C@H](Nc4ccc(-c5cccc(C(=O)NC)c5)nn4)C[C@H]3C2)CC([2H])([2H])O1` (single isomer, unassigned) [Compound A74] were 4% and 7.40.
Taken in the same sequence, the figures for `CCC(=O)Nc1ccc(-c2ccc(N[C@H]3C[C@@H]4CN(CC5CCOCC5)C[C@@H]4C3)nn2)cc1` [Compound A39, N-(4-(6-(((3aR,5s,6aS)-2-((tetrahydro-2H-pyran-4-yl)methyl)octahydrocyclopenta[c]pyrrol-5-yl)amino)pyridazin-3-yl)phenyl)propionamide] were 3% and 8.51.
Regarding `CCNC(=O)c1ccc(-c2ccc(N[C@H]3C[C@@H]4CN(CC5CCOCC5)C[C@@H]4C3)nn2)cc1` [Compound A51, N-ethyl-4-(6-(((3aR,5s,6aS)-2-((tetrahydro-2H-pyran-4-yl)methyl)octahydrocyclopenta[c]pyrrol-5-yl)amino)pyridazin-3-yl)benzamide], the remaining activity at 30 µM worked out at 3% and the pIC50 was 8.68.
With `[2H]C([2H])(C1CCOCC1)N1C[C@H]2C[C@H](Nc3ccc(-c4cccc(NC(=O)C5CC5)c4)nn3)C[C@H]2C1` [Compound A32, N-(3-(6-(((3aR,5s,6aS)-2-((tetrahydro-2H-pyran-4-yl)methyl-d2)octahydrocyclopenta[c]pyrrol-5-yl)amino)pyridazin-3-yl)phenyl)cyclopropanecarboxamide], the remaining activity at 30 µM came out at 3% and the pIC50 was 7.80.
Consider `[2H]C([2H])([C@H]1COCCO1)N1C[C@H]2C[C@H](Nc3ccc(-c4cccc(C(=O)NC)c4)nn3)C[C@H]2C1` [Compound A77, 3-(6-(((3aR,5s,6aS)-2-(((S)-1,4-dioxan-2-yl)methyl-d2)octahydrocyclopenta[c]pyrrol-5-yl)amino)pyridazin-3-yl)-N-methylbenzamide], for which the remaining activity at 30 µM turned out to be 4% and the pIC50 is 7.35.
